Measured values taken from PubChem BioAssay (NCI).
Several values for one entry are separate records, joined by “and”; a condition that tells them apart may be missing. Equal entries are not always repeated.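 Each compound was tested at five concentrations against cells in 96-well plates for 48 hours. Abbreviation: GI50, concentration required for 50% inhibition of growth. TGI: concentration producing complete growth inhibition.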

Legend:
Assay in all cases: NCI tumour cell line growth inhibition, 48 h
786-0 renal = test system: 786-0 renal
HCT-116 colon = test system: HCT-116 colon
SK-OV-3 ovarian = test system: SK-OV-3 ovarian
MDA-MB-435 = test system: MDA-MB-435
A498 renal = test system: A498 renal
SK-MEL-5 melanoma = test system: SK-MEL-5 melanoma
HCC-2998 colon = test system: HCC-2998 colon
NCI/ADR-RES ovarian = test system: NCI/ADR-RES ovarian
DMS 273 small cell lung = test system: DMS 273 small cell lung

SMILES	GI50 (786-0 renal)	TGI (786-0 renal)	GI50 (HCT-116 colon)	TGI (HCT-116 colon)	GI50 (SK-OV-3 ovarian)	TGI (SK-OV-3 ovarian)	GI50 (MDA-MB-435)	TGI (MDA-MB-435)	GI50 (A498 renal)	TGI (A498 renal)	GI50 (SK-MEL-5 melanoma)	TGI (SK-MEL-5 melanoma)	GI50 (HCC-2998 colon)	TGI (HCC-2998 colon)	GI50 (NCI/ADR-RES ovarian)	TGI (NCI/ADR-RES ovarian)	GI50 (DMS 273 small cell lung)	TGI (DMS 273 small cell lung)
C[C@@H](Nc1nc(N[C@H](C)C(F)(F)F)nc(-c2cccc(Cl)n2)n1)C(F)(F)F	27.4 µM	91.4 µM	59.4 µM	> 100 µM	37.6 µM	> 100 µM	> 100 µM	> 100 µM	29.9 µM	99.7 µM	51.2 µM	> 100 µM	66.3 µM	> 100 µM	32.9 µM	> 100 µM	–	–
COC(=O)c1cc(-c2ccc3ccccc3c2)[nH]c(=O)c1C#N	–	> 100 µM	–	> 100 µM	–	> 100 µM	–	> 100 µM	–	> 100 µM	–	> 100 µM	–	> 100 µM	–	> 100 µM	–	–
COc1cc2c(Oc3ccc(NC(=O)C4(C(=O)Nc5ccc(F)cc5)CC4)cc3F)ccnc2cc1OCCCN1CCOCC1	1.61 µM and 1.54 µM	3.11 µM and 2.99 µM	0.609 µM and 0.586 µM	2.02 µM and 2.06 µM	1.81 µM and 1.88 µM	3.94 µM and 5.53 µM	0.694 µM	2.39 µM	< 0.0462 µM and 0.383 µM	1.24 µM and 1.7 µM	1.37 µM and 1.39 µM	2.68 µM and 2.71 µM	1.24 µM and 1.31 µM	2.62 µM and 4.31 µM	1.98 µM	> 10 µM	–	–
COc1ccc(-n2cc(-c3cc(OC)c(OC)c(OC)c3)nc2SCc2ccc(Cl)cc2)cc1OC	> 100 µM	> 100 µM	> 100 µM	> 100 µM	> 100 µM	> 100 µM	> 100 µM	> 100 µM	89 µM	> 100 µM	41.7 µM	> 100 µM	> 100 µM	> 100 µM	81.6 µM	> 100 µM	–	–
CC[C@@]1(O)C(=O)OCc2c1cc1n(c2=O)Cc2cc3cc(Cl)ccc3nc2-1	0.00519 µM	0.327 µM	–	–	0.0152 µM	39.9 µM	0.089 µM	0.357 µM	0.00878 µM and 0.0517 µM	0.132 µM and 0.221 µM	0.0082 µM and 0.0181 µM	0.0501 µM and 0.0636 µM	0.0277 µM and 0.0364 µM	0.202 µM and 0.32 µM	–	–	< 0.001 µM	0.0211 µM and 0.14 µM
Cc1cc(S(=O)(=O)/N=C(\N)Nc2cccc(O)c2)c(SCc2ccccc2)cc1Cl	16.9 µM	33.5 µM	12.6 µM	34 µM	19.1 µM	37.9 µM	14.2 µM	32.5 µM	17.8 µM	35.7 µM	12.1 µM	29.6 µM	32.6 µM	65.1 µM	26.5 µM	70.2 µM	–	–
Cc1ccccc1NC(=O)CC1C(=O)Nc2ccccc2S1=O (stereo unspecified)	–	> 100 µM	–	> 100 µM	–	–	–	–	–	> 100 µM	–	> 100 µM	–	> 100 µM	–	–	–	> 100 µM
CCOC(=O)/C(=C/CC/C(C)=C/CC/C(C)=C/CCc1ccoc1)CC(=O)N1CCCCC1	5.29 µM	18.8 µM	2.66 µM	10.2 µM	8.27 µM	36.1 µM	3.05 µM	10.9 µM	1.27 µM	3.08 µM	1.66 µM	3.09 µM	3.93 µM	14.3 µM	3.88 µM	23.7 µM	–	–
CCCCCC/C=C/C#CCCCCCCCC(=O)O	–	> 100 µM	–	> 100 µM	–	> 100 µM	–	> 100 µM	–	> 100 µM	–	> 100 µM	–	> 100 µM	–	> 100 µM	–	–
